Results on one compound are retold here after patent US20080009573A1, “Labeled tackifiers” (priority 2006, published 2008).

For the compound `C=CCN1C(=O)c2cccc3c(CNCCOC(=O)C4(C)CCCC5(C)C6CCC(C(C)C)=CC6=CCC45)ccc(c23)C1=O` (stereo not shown) [Compound 17, 7-Isopropyl-1,4a-dimethyl-1,2,3,4,4a,4b,5,6,10,10a-decahydro-phenanthrene-1-carboxylic acid 2-[(2-allyl-1,3-dioxo-2,3-dihydro-1H-benzo[de]isoquinolin-6-yl)methylamino]ethyl ester], the melting point (in general, the temperature, or range, at which the solid turns liquid) was 64 to 66 °C.
